Measured values reported in patent US8143254B2, “Methods for modulating ion channels” (Cornell Research Foundation, Inc., priority 2005, dated 2012).

Molecular target: T1, Kv3.4 (UniProt Q63734)
T1 construct: IC50; other: Kv3.4, logistic dose response fit; effect on Kv3.4 currents; other: 1 mM, bath applied; slope of dose response curve; other: Kv3.4
T1 sequence (Q63734 1-625): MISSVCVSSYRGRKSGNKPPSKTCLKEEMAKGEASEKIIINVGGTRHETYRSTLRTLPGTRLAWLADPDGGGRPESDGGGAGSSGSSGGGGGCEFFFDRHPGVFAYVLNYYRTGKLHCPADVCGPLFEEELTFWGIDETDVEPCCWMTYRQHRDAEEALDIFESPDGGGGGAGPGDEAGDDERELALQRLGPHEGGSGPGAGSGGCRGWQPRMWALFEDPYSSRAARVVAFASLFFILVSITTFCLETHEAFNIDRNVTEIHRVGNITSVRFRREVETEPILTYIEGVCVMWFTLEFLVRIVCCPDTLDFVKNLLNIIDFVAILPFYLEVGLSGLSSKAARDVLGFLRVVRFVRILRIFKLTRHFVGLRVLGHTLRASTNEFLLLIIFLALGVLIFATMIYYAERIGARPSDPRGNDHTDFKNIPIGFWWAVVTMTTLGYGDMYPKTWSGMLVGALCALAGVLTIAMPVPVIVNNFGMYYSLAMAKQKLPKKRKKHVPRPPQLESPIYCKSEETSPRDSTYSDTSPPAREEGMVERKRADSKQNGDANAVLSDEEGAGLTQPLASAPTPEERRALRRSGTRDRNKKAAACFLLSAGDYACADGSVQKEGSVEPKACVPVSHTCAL
Assay: TEVC of X. laevis oocytes expressing Kv3.4
Assay type: cell-based
Settings: for effect on Kv3.4 currents: 1 mM, bath applied; for slope of dose response curve: Kv3.4; for IC50: Kv3.4, logistic dose response fit
Text: Kv2.1 mutants were constructed using the QuickChange Multi Site-Directed Mutagenesis Kit (Stratagene, La Jolla, Calif.). […] For oocyte expression, Kv3.4 was in pBF1, Kv4.2 was in pRAT. cRNA transcripts were produced from SacII-linearized (Kv2.1), Mlullinearized (Kv3.4) and Not1-linearized (Kv4.2) DNA templates using the T3 (Kv2.1), SP6 (Kv3.4) and T7 (Kv4.2) mMessage mMachine kits (Ambion, Austin, Tex.). cRNA was quantified by spectrophotometry and its size integrity verified by gel electophoresis. Defolliculated stage V and VI Xenopus laevis oocytes (purchased from Nasco, Grand Island, N.Y.) were injected with 5 ng of cRNA encoding Kv2.1, Kv3.4 or Kv4.2. Chinese Hamster Ovary (CHO) cells were transfected with 0.25 μg Kv2.1 cDNA, 2 μg blank plasmid and 2 μg Green fluorescent Protein in pBOB using Supetfect transfection reagent (Qiagen) 24 hours before whole-cell voltage clamp studies.
Oocytes were bathed in a small-volume Warner oocyte bath and viewed with a Fisher dissection microscope. Bath solution for whole-cell oocyte recordings was (in mM): 96 NaCl, 4 KCl, 0.7 MgCl2, 1 CaCl2, 10 HEPES (pH 7.4); whole-cell oocyte TEVC pipettes were of 0.2-2 M resistance when filled with 3 M KCl. Experiments were performed 24-48 hours after cRNA injection. For assessment of current-voltage relationships in the absence or presence of dabco derivatives, oocytes were held at −80 mV, stepped for 2 seconds at voltages between −80 mV and +60 mV in 20 mV steps (Kv2.1) or between −80 and +50 mV in 10 mV steps (Kv3.4), then held for 500 ms at −40 mV before returning to the holding potential. For assessment of block during wash-in of dabco derivatives at a single voltage, oocytes were held at −80 mV, and repetitively stepped to 0 mV for 2 s with an interpulse interval of 10 s or 60 s as indicated. A range of concentrations of dabco or dabco derivatives were washed in via the bath solution during repetitive single-voltage pulses (after an initial period of 5 pulses with control solution to ensure current stabilization) until equilibrium block was achieved, to establish dose-responses. […] Washout was performed after the highest concentration of blocker was washed in. In cases where washout was achieved, only those recordings in which current returned to within 10% of original current level were used for construction of dose-response curves. […] As controls for this protection analysis, JC638.2a or MTSET were washed in alone until equilibrium block, then washed out.
Data analysis: Current-voltage relationships were obtained by measuring peak current during depolarizing pulses. Inhibition constants for DABCO blockers were calculated after generating a dose response curve by fitting with a logistic dose-response function y=A2+[A1−A2/1+(x/x0)^p], where A1 is the maximum response plateau, A2 is the minimum response plateau, x is drug concentrator, x0 is the IC50, and p the Hill slope. Data analysis was performed using […] 9 (Axon Instruments, Foster City, Calif.) and tabulated in Excel 5.0. Graphs were generated using Origin 6.1. Data are expressed as mean±SEM, with n specifying the number of independent experiments. Statistical significance was assessed by one-way ANOVA with p<0.05 being indicative of significance.

Row | SMILES | effect on Kv3.4 currents | slope of dose response curve | IC50
1 | c1cc(C[N+]23CCN(CC2)CC3)ccc1C[N+]12CCN(CC1)CC2 [JC638.2α, α,α′-[bis(4-aza-1-azoniabicyclo[2.2.2]octanyl)]p-xylene] | significant inhibition | 1.3±0.2 | 129 ± 20.7 µM
2 | CCCCCCCCCCCC[N+]12CCN(CC1)CC2 [JE188, 1-aza-4-azonia-4-dodecylbicyclo[2.2.2]octane] |  | 0.7±0.1 | 34.2 ± 10 µM
3 | CCCCCCCCCCCCCCCC[N+]12CCN(CC1)CC2 [TA279, 1-aza-4-azonia-4-hexadecylbicyclo[2.2.2]octane] |  | 2.8±1.1 | 0.6 ± 0.1 µM
4 | C(CC[N+]12CCN(CC1)CC2)C[N+]12CCN(CC1)CC2 [TG26] | less effective than TG27 |  | 
